Reference: patent US20110117212A1, “THERAPEUTIC COMBINATION COMPRISING AN AURORA KINASE INHIBITOR AND AN ANTINEOPLASTIC AGENT” (priority 2008, published 2011)

Key:
[1] = system: A2780 human ovarian carcinoma; test: In vivo antitumor efficacy in combination with cisplatin; details: A2780 s.c. in athymic mice; Compound 1 15 mg/kg ip BID days 13-17; cisplatin 8 mg/kg iv day 17; combination: same doses and days
Experimental: (§1) A2780 human ovarian carcinoma cells were obtained from American Type Culture Collection (Rockville, Md.) and were maintained in vitro as continuous cultures in RPMI medium supplemented with 10% FBS, at 37° C., 5% CO2. For in vivo experiments 8×10^6 A2780 cells were implanted subcutaneously in athymic mice.
(§2) The treatment started when tumors were palpable (day 13). Both compounds were prepared immediately before treatment.
(§3) Tumor growth was assessed by caliper. […] Animals were sacrificed on day 37 after tumor implant, day 24 from the start of treatments and tumors were weighted. The effect of the antitumor treatment was evaluated as percentage of tumor growth inhibition of the treated group respect to control.

[2] = system: A2780 human ovarian carcinoma; test: In vivo antitumor efficacy of the combination with irinotecan; details: for TGI %: A2780 s.c. in athymic mice, Compound 1 30 mg/kg ip BID days 13-17, irinotecan 60 mg/kg iv day 13, combination: irinotecan 50 mg/kg day 13 + Compound 1 30 mg/kg days 13-17
Experimental: as §1, with “A2780” for “A2780 cells”, “mice. This tumor model was selected because it was sensitive to platinum derivatives and also on the basis of use of this drugs in ovarian cancer.” for “mice.”
as §2
as §3, with “When combined, compound 1 was administered from day 1 to day 5, irinotecan at day 1. […] Tumor” for “Tumor”

[3] = system: BX-PC3 human pancreatic carcinoma; test: In vivo antitumor efficacy in combination with gemcitabine; details: BX-PC3 s.c. in athymic mice; compound 1 15 mg/kg ip BID days 9-17; gemcitabine 80 mg/kg iv days 9, 13, 17; combination: gemcitabine days 9, 13, 17, compound 1 days 10, 11, 12, 14, 15, 16, 18, 19, 20
Experimental: Fragments of BX-PC3 human pancreatic carcinoma were implanted subcutaneously in athymic mice. […] The treatment with gemcitabine started at day 9 after tumor implantation, when tumors were palpable. Compounds were prepared immediately before treatments.
When combined, gemcitabine was administered at days 9, 13, 17 and compound 1 was administered for the following 3 days after gemcitabine administration. […] Tumor growth was assessed by caliper. […] The effect of the antitumor treatment was evaluated as percentage of tumor growth inhibition (TGI %). Toxicity was evaluated on the basis of body weight reduction.

DU145 prostate carcinoma = details: DU145 s.c. in athymic mice; delay to reach 1 g tumor; Compound 1 30 mg/kg ip BID days 10-18; docetaxel 7.5 mg/kg iv days 10, 14, 18; combination: docetaxel days 10, 14, 18, Compound 1 days 11, 12, 13, 15, 16, 17, 19, 20, 21
Experimental: Balb, Nu\Nu male mice, from Harlan (Italy), were maintained in cages with paper filter cover, food and bedding sterilized and water acidified. 2.5×10^6 DU145 prostate carcinoma cells (from the American Type Culture Collection) were injected subcutaneously in athymic mice.
The treatment started 10 days later tumor cells injection when tumors were palpable. Docetaxel was prepared immediately before treatment, compound 1 of formula (A) was prepared daily, on the basis of known stability of the compound.
Compound 1 was administered by intraperitoneal route in a volume of 10 ml/kg at the doses of 30 mg/kg twice a day (BID) for 9 days (days 10 to 18). Docetaxel was administered by intravenous route in a volume of 10 ml/kg at the dose of 7.5 mg/kg on days 10, 14, 18 from the days of cell injection. When combined, compound 1 was administered in the interval between the docetaxel treatments at days 11, 12, 13, 15, 16, 17, 19, 20 and 21. Tumor growth and body weight were measured every 3 days. Tumor growth was assessed by caliper. The two diameters were recorded and the tumor weight was calculated according the following formula:
length (mm)×width^2/2. The effect of the antitumor treatment was evaluated as the delay in the onset of an exponential growth of the tumor (see for references, Anticancer drugs 7:437-60, 1996). […] Toxicity was evaluated on the basis of body weigh reduction.

SMILES | TGI % [1] | TGI % [2] | TGI % [3] | T-C (DU145 prostate carcinoma) | Toxicity ([2]; evaluated on the basis of body weight reduction, A2780 mice, Compound 1 30 mg/kg ip BID, irinotecan iv, alone or combined)
N.N.[Cl][Pt][Cl] [Cisplatin, cisplatin] | 21% |  |  |  | 
CO[C@@H](C(=O)N1Cc2[nH]nc(NC(=O)c3ccc(N4CCN(C)CC4)cc3)c2C1)c1ccccc1 [Compound 1, N-{5-[(2R)-2-methoxy-2-phenylethanoyl]-1,4,5,6-tetrahydropyrrolo[3,4-c]pyrazol-3-yl}-4-(4-methylpiperazin-1-yl)benzamide] | 46% | 72.3% | 53% | 5.3 days | 
Nc1ccn([C@@H]2O[C@H](CO)[C@@H](O)C2(F)F)c(=O)n1 [gemcitabine] |  |  | 61% |  | 
CCc1c2c(nc3ccc(OC(=O)N4CCC(N5CCCCC5)CC4)cc13)-c1cc3c(c(=O)n1C2)COC(=O)[C@]3(O)CC [irinotecan] |  | 62% |  |  | 0/7
CC(=O)O[C@@]12CO[C@@H]1C[C@H](O)[C@@]1(C)C(=O)[C@H](O)C3=C(C)[C@@H](OC(=O)[C@H](O)[C@@H](NC(=O)OC(C)(C)C)c4ccccc4)C[C@@](O)([C@@H](OC(=O)c4ccccc4)[C@H]21)C3(C)C [docetaxel] |  |  |  | 3.7 days | 
